Results taken from ChEMBL document CHEMBL1240349, “Influence of tigecycline on expression of virulence factors in biofilm-associated cells of methicillin-resistant Staphylococcus aureus” (2010).

Key:
Type in all cases: functional
[1] = tested on: Staphylococcus aureus; test: Increase in dltB gene expression in biofilm-associated cells of epidemic methicillin-resistant Staphylococcus aureus isolate 16 at 4 times MIC incubated for 1 hr by whole genome microarray relative to untreated control
[2] = tested on: Staphylococcus aureus; test: Increase in cna expression in biofilm-associated cells of epidemic methicillin-resistant Staphylococcus aureus isolate 16-1 at 4 times MIC incubated for 1 hr by RT-PCR relative to untreated control
[3] = tested on: Staphylococcus aureus; test: Decrease in capG expression in biofilm-associated cells of epidemic methicillin-resistant Staphylococcus aureus isolate 15 at 4 times MIC incubated for 1 hr by RT-PCR relative to untreated control
[4] = tested on: Staphylococcus aureus; test: Increase in sstD gene expression in biofilm-associated cells of epidemic methicillin-resistant Staphylococcus aureus isolate 16 at 4 times MIC incubated for 1 hr by whole genome microarray relative to untreated control
[5] = tested on: Staphylococcus aureus; test: Decrease in sasF gene expression in biofilm-associated cells of epidemic methicillin-resistant Staphylococcus aureus isolate 16 at 4 times MIC incubated for 1 hr by RT-PCR relative to untreated control
[6] = tested on: Staphylococcus aureus; test: Increase in ssaA gene expression in biofilm-associated cells of epidemic methicillin-resistant Staphylococcus aureus isolate 16 at 4 times MIC incubated for 1 hr by RT-PCR relative to untreated control
[7] = tested on: Staphylococcus aureus; test: Increase in pbp2 gene expression in biofilm-associated cells of epidemic methicillin-resistant Staphylococcus aureus isolate 16 at 4 times MIC incubated for 1 hr by whole genome microarray relative to untreated control
[8] = tested on: Staphylococcus aureus; test: Increase in rpsH gene expression in biofilm-associated cells of epidemic methicillin-resistant Staphylococcus aureus isolate 16 at 4 times MIC incubated for 1 hr by whole genome microarray relative to untreated control
[9] = tested on: Staphylococcus aureus; test: Decrease in polA gene expression in biofilm-associated cells of epidemic methicillin-resistant Staphylococcus aureus isolate 16 at 4 times MIC incubated for 1 hr by whole genome microarray relative to untreated control
[10] = tested on: Staphylococcus aureus; test: Increase in rplC gene expression in biofilm-associated cells of epidemic methicillin-resistant Staphylococcus aureus isolate 16 at 4 times MIC incubated for 1 hr by whole genome microarray relative to untreated control
[11] = tested on: Staphylococcus aureus; test: Decrease in tst expression in biofilm-associated cells of epidemic methicillin-resistant Staphylococcus aureus isolate 16-2 at 4 times MIC incubated for 1 hr by RT-PCR relative to untreated control
[12] = tested on: Staphylococcus aureus; test: Decrease in dinR gene expression in biofilm-associated cells of epidemic methicillin-resistant Staphylococcus aureus isolate 16 at 4 times MIC incubated for 1 hr by whole genome microarray relative to untreated control
[13] = tested on: Staphylococcus aureus; test: Increase in mnhE gene expression in biofilm-associated cells of epidemic methicillin-resistant Staphylococcus aureus isolate 16 at 4 times MIC incubated for 1 hr by whole genome microarray relative to untreated control
[14] = tested on: Staphylococcus aureus; test: Decrease in sodA gene expression in biofilm-associated cells of epidemic methicillin-resistant Staphylococcus aureus isolate 16 at 4 times MIC incubated for 1 hr by whole genome microarray relative to untreated control
[15] = tested on: Staphylococcus aureus; test: Decrease in sdrD gene expression in biofilm-associated cells of epidemic methicillin-resistant Staphylococcus aureus isolate 16 at 4 times MIC incubated for 1 hr by whole genome microarray relative to untreated control
[16] = tested on: Staphylococcus aureus; test: Increase in tcaR gene expression in biofilm-associated cells of epidemic methicillin-resistant Staphylococcus aureus isolate 16 at 4 times MIC incubated for 1 hr by whole genome microarray relative to untreated control
[17] = tested on: Staphylococcus aureus; test: Increase in mnhF gene expression in biofilm-associated cells of epidemic methicillin-resistant Staphylococcus aureus isolate 16 at 4 times MIC incubated for 1 hr by whole genome microarray relative to untreated control
[18] = tested on: Staphylococcus aureus; test: Increase in clfB gene expression in biofilm-associated cells of epidemic methicillin-resistant Staphylococcus aureus isolate 16 at 4 times MIC incubated for 1 hr by RT-PCR relative to untreated control
[19] = tested on: Staphylococcus aureus; test: Decrease in capC gene expression in biofilm-associated cells of epidemic methicillin-resistant Staphylococcus aureus isolate 16 at 4 times MIC incubated for 1 hr by whole genome microarray relative to untreated control
[20] = tested on: Staphylococcus aureus; test: Decrease in capC expression in biofilm-associated cells of epidemic methicillin-resistant Staphylococcus aureus isolate 16-2 at 4 times MIC incubated for 1 hr by RT-PCR relative to untreated control
[21] = tested on: Staphylococcus aureus; test: Decrease in icaC gene expression in biofilm-associated cells of epidemic methicillin-resistant Staphylococcus aureus isolate 16 at 4 times MIC incubated for 1 hr by RT-PCR relative to untreated control
[22] = tested on: Staphylococcus aureus; test: Increase in cna gene expression in biofilm-associated cells of epidemic methicillin-resistant Staphylococcus aureus isolate 16 at 4 times MIC incubated for 1 hr by whole genome microarray relative to untreated control
[23] = tested on: Staphylococcus aureus; test: Decrease in capG expression in biofilm-associated cells of epidemic methicillin-resistant Staphylococcus aureus isolate 16-2 at 4 times MIC incubated for 1 hr by RT-PCR relative to untreated control
[24] = tested on: Staphylococcus aureus; test: Increase in dnaG gene expression in biofilm-associated cells of epidemic methicillin-resistant Staphylococcus aureus isolate 16 at 4 times MIC incubated for 1 hr by whole genome microarray relative to untreated control
[25] = tested on: Staphylococcus aureus; test: Increase in rplB gene expression in biofilm-associated cells of epidemic methicillin-resistant Staphylococcus aureus isolate 16 at 4 times MIC incubated for 1 hr by whole genome microarray relative to untreated control
[26] = tested on: Staphylococcus aureus; test: Increase in ssaA expression in biofilm-associated cells of epidemic methicillin-resistant Staphylococcus aureus isolate 16-1 at 4 times MIC incubated for 1 hr by RT-PCR relative to untreated control
[27] = tested on: Staphylococcus aureus; test: Increase in rplN gene expression in biofilm-associated cells of epidemic methicillin-resistant Staphylococcus aureus isolate 16 at 4 times MIC incubated for 1 hr by whole genome microarray relative to untreated control
[28] = tested on: Staphylococcus aureus; test: Decrease in capG gene expression in biofilm-associated cells of epidemic methicillin-resistant Staphylococcus aureus isolate 16 at 4 times MIC incubated for 1 hr by whole genome microarray relative to untreated control
[29] = tested on: Staphylococcus aureus; test: Increase in isaA expression in biofilm-associated cells of epidemic methicillin-resistant Staphylococcus aureus isolate 16-1 at 4 times MIC incubated for 1 hr by RT-PCR relative to untreated control
[30] = tested on: Staphylococcus aureus; test: Increase in fnbB gene expression in biofilm-associated cells of epidemic methicillin-resistant Staphylococcus aureus isolate 16 at 4 times MIC incubated for 1 hr by RT-PCR relative to untreated control
[31] = tested on: Staphylococcus aureus; test: Increase in rplJ gene expression in biofilm-associated cells of epidemic methicillin-resistant Staphylococcus aureus isolate 16 at 4 times MIC incubated for 1 hr by whole genome microarray relative to untreated control

CN(C)c1cc(NC(=O)CNC(C)(C)C)c(O)c2c1C[C@H]1C[C@H]3[C@H](N(C)C)C(O)=C(C(N)=O)C(=O)[C@@]3(O)C(O)=C1C2=O [TIGECYCLINE]
fold change (FC) [1]: 2.02
fold change (FC) [2]: 3.42
fold change (FC) [3]: 1.58
fold change (FC) [4]: 3.27
fold change (FC) [5]: 1.32
fold change (FC) [6]: 2.04
fold change (FC) [7]: 3.91
fold change (FC) [8]: 14.86
fold change (FC) [9]: 2.11
fold change (FC) [10]: 12.06
fold change (FC) [11]: 5.52
fold change (FC) [12]: 3.31
fold change (FC) [13]: 3.15
fold change (FC) [14]: 2.59
fold change (FC) [15]: 2.46
fold change (FC) [16]: 2.79
fold change (FC) [17]: 3.27
fold change (FC) [18]: 7.5
fold change (FC) [19]: 3.14
fold change (FC) [20]: 1.09
fold change (FC) [21]: 2.23
fold change (FC) [22]: 2.1
fold change (FC) [23]: 1.96
fold change (FC) [24]: 2.19
fold change (FC) [25]: 13.38
fold change (FC) [26]: 2.04
fold change (FC) [27]: 13.76
fold change (FC) [28]: 2.3
fold change (FC) [29]: 7.68
fold change (FC) [30]: 3.03
fold change (FC) [31]: 12.75
